Data on one compound can be found in US20100143507A1, “CARBOXYLIC ACID INHIBITORS OF HISTONE DEACETYLASE, GABA TRANSAMINASE AND SODIUM CHANNEL” (AUSPEX PHARMACEUTICALS, INC., priority 2008, published 2010).

SMILES strings stand for the structures.

A short description of the data set: In vitro liver microsomal stability assay. The data set is classed as in vitro ADME. To be noted: 1 mg per mL liver microsome protein, NADPH-generating system, 1 μM test compound, 37° C., 0-60 minutes, LC/MS/MS. On the procedure: Liver microsomal stability assays were conducted with 1 mg per mL liver microsome protein with an NADPH-generating system (2.2 mM NADPH, 25.6 mM glucose 6-phosphate, 6 units per mL glucose 6-phosphate dehydrogenase and 3.3 mM magnesium chloride) in 2% sodium bicarbonate. Test compounds were prepared as solutions in 20% acetonitrile-water and added to the assay mixture (final assay concentration 1 μM) and incubated at 37° C. Final concentration of acetonitrile in the assay should be <1%. Aliquots (50 μL) were taken out at times 0, 15, 30, 45, and 60 minutes, and diluted with ice cold acetonitrile (200 μL) to stop the reactions. Samples were centrifuged at 12,000 RPM for 10 minutes to precipitate proteins. Supernatants were transferred to microcentrifuge tubes and stored for LC/MS/MS analysis of the degradation half-life of the test compounds. […] In certain embodiments, the increase in degradation half-life is at least 5%; at least 10%; or at least 15%.
In general terms: Microsomes from liver hold many membrane-bound enzymes, among them those of drug oxidation.

For `[2H]C([2H])([2H])C([2H])([2H])C([2H])([2H])C([2H])(C(=O)O)C([2H])([2H])C([2H])([2H])C([2H])([2H])[2H]` [valproic acid-d15], the “degradation half-life as compared to the non-isotopically enriched drug” value is “increased degradation half-life”.
